US20220249413A1, “SWELL 1 MODULATORS FOR TREATMENT OF NON-ALCOHOLIC FATTY LIVER DISEASE, IMMUNE DEFICIENCIES, MALE INFERTILITY AND VASCULAR DISEASES” (priority 2019, published 2022)

Assay: Tolerability during chronic injection protocols
Assay type: in vivo, mouse
Details: daily injections for up to 8 weeks, 5 mg/kg i.p.
From the text: Patients Human islets and adipocytes were obtained and cultured as described previously (Zhang et al., Nat Cell Biol, 19, 504-517, 2017; Kang et al., Nature Communications, 9, 367, 2018). The Patients involved in the study were anonymous and information such as gender, age, HbA1c, glucose levels and BMI only were available to the research team. The study was approved and carried out as per the guidelines of the University of Iowa Institutional Review Board (IRB). Animals All experimental procedures involving mice were approved by the Institutional Animal Care and Use Committee of the University of Iowa and Washington University at St. Louis. All C57BL/6 mice involved in study were purchased from Charles River Labs. Both KK.Cg-Ay/J (KKA^y) and KK.Cg-Aa/J (KKA^a) mice involved in study were gender and age-matched mice obtained from Jackson Labs (Stock No: 002468) and bred up for experiments. The mice were fed ad libitum with either regular chow (RC) or high-fat diet (Research Diets, Inc., 60 kcal % fat) with free access to water and housed in a light-, temperature- and humidity-controlled room. For high-fat diet (HFD) studies, only male mice were used and were started on HFD regimen at the age of 6-9 weeks. For all experiments involving KKA^y and KKA^a mice, both males and females were used at approximately 50/50 ratio. […] Based on GFP fluorescence, viral transduction efficiency was ˜90%.

SMILES: CCCCC1(C2CCCC2)Cc2cc(OCCCC(=O)O)c(Cl)c(Cl)c2C1=O (stereo not shown) [Smod1, 4-[(2-Butyl-6,7-dichloro-2-cyclopentyl-2,3-dihydro-1-oxo-1H-inden-5-yl)oxy]butanoic acid]
- signs of toxicity: no overt signs of toxicity
